The test system of test [1] is PC3 cells. The experiment in a line: PC3 growth inhibition (Cell-titer glo, 72 hours). It is filed as cell-based. The conditions noted are these: Homo sapiens, PC-3, 72 h, read-out: Percent Viability, PC3 cells, compound concentration 1.667 μM, 72 hours. Here is the method: The invention also provides compounds that inhibit cell growth. The ability of a compound of the invention to inhibit the growth of cells can be measured using a variety of methods known in the art. For example, the ability of a compound of the invention to inhibit the growth of PC3 cells can be measured. PC3 cells can be plated and incubated overnight under CO2. For each measurement, a compound of the invention (or vehicle e.g., DMSO) can be diluted with AIM serum free medium and added to the cell plate. The cell plate can then be incubated for 72 h under CO2. Cell-titer glo solution can be added and the plates can be incubated protected from light and the amount of luminescences can be measured. Concentration response curves can be generated by calculating the luminescence increase in test compound treated samples relative to DMSO-treated controls. Percentage remaining viability values at a single concentration can be measured. Growth inhibition (GI50) or cell viability (LD50) values can be determined from thoses curves. In one embodiment, compounds of the invention have a percent viability in PC3 line @ 1.667 uM of <1%. In one embodiment, compounds of the invention have a percent viability in PC3 line @ 1.667 uM of <2%. In one embodiment, compounds of the invention have a percent viability in PC3 line @ 1.667 uM of <3%. In one embodiment, compounds of the invention have a percent viability in PC3 line @ 1.667 uM of <4%. In one embodiment, compounds of the invention have a percent viability in PC3 line @ 1.667 uM of <5%. In one embodiment, compounds of the invention have a percent viability in PC3 line @ 1.667 uM of <10%. In one embodiment, compounds of the invention have a percent viability in PC3 line @ 1.667 uM of <50%.
To measure PC3 growth inhibition, PC3 cells that were maintained in RPMI1640 growth medium (Life Technologies; Cat. No. 11875) at 37° C. under 5% CO2 are trypsinized and diluted at a density of 8×10^4 cells/ml, 25 ul per well of cells and plated in 384-well black tissue culture plate. The cells are incubated overnight at 37° C. under 5% CO2. For each measurement, a test compound or vehicle DMSO control is diluted with AIM serum free medium and added to the cell plate. The cell plate is incubated for 72 hours at 37° C. under 5% CO2. 25 μl Cell-titer glo solution (Promega; Cat. No. G8462) is added and the cell plates are incubated for 10 minutes protected from light. The luminescence is measured. Concentration response curves are generated by calculating the luminescence increase in test compound-treated samples relative to DMSO-treated controls. Percentage remaining viability values at a single concentration, growth inhibition (GI50) or cell viability (LD50) values are determined from those curves. One skilled in the art will appreciate that these values are subject to experimental variation.

For test [2], the target named is hNAMPT protein (Homo sapiens (Human), UniProt P43490). As to the kind of experiment: NAMPT enzyme assay (TR-FRET/HTRF with BodiPY ligand). The format is binding. The conditions noted are these: for inhibition at 1 µM: NAMPT inhibition at compound concentration 1 μM, read-out: Percent Inhibition; for IC50: NAMPT inhibition, IC50 range class. An excerpt: As discussed above, the invention provides compounds that are useful as inhibitors of the enzyme NAMPT. The NAMPT inhibition of a compound of the invention can be measured using a variety of methods known in the art. For example, the ability of a compound of the invention to inhibit NAMPT enzyme activity can be measured using a homogeneous time resolved fluorescence (HTRF) assay using hNAMPT protein and anti 6His-Tb in buffer treated with a compound of the invention (or control e.g., DMSO) and BodiPY ligand. The TR-FRET signal can be measured using a high throughput microplate reader (e.g., Pherastar). Excitation can be carried out at 320 nm. The percent inhibition value at a single concentration of compound of the invention can be calculated relative to a control treated sample. A concentration response curve can be generated for each compound of the invention and the curve fitted to generate an IC50 value. […] To measure the inhibition of NAMPT activity hNAMPT protein stock and anti 6His-Tb (Cisbio; Cat. No. […]TLB) is diluted to 3× final concentration with assay buffer (50 mM Tris-HCl (pH 7.5), 1 mM DTT, 100 mM NaCl, 10 mM MgCl2, 0.005% Tween 20). To this solution is added a test compound or vehicle control (DMSO) and BodiPY ligand (structure below). The plate is shaken for 1-2 min sealed and incubated for 1 h at rt in the dark. The TR-FRET signal is measured using BMG Pherastar (Lanthascreen protocol on BMG Pherastar). Excitation was carried out at 320 nm, and the ratio of emission of BodiPY (520 nm) to terbium (486 nm) was determined. Concentration response curves are generated by calculating the excitation increase in test compound-treated samples relative to DMSO-treated controls. For the assay method described above, test compound percent inhibition values at a single concentration are calculated relative to control (DMSO) treated samples. Compound concentration response curves are fitted to generate IC50 values from those curves. One skilled in the art will appreciate that these values generated either as percentage inhibition at a single concentration or IC50 values are subject to experimental variation.
Background: In TR-FRET formats the signal depends on donor and acceptor labels being close together.

The inhibition is how much of the control response was suppressed. As usually defined, the IC50 is the midpoint of a concentration-inhibition curve.

Chain of hNAMPT protein (P43490 whole entry): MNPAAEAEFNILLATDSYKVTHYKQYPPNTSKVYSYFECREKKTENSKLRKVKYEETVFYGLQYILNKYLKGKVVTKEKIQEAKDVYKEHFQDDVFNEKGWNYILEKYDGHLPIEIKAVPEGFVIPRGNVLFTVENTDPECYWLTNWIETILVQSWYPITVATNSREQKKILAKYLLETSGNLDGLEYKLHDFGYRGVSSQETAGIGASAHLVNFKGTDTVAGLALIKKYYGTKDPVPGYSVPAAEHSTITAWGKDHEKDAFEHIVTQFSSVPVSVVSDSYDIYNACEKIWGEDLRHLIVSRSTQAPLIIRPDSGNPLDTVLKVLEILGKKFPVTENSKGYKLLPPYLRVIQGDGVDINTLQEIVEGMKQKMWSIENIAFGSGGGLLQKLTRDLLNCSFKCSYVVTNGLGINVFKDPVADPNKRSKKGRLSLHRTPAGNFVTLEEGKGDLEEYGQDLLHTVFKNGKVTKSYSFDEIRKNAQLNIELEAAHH

Turning to `CCOc1cc(-c2ccc(C(F)(F)F)nc2)nc2cc(C(=O)NCCCc3nnc[nH]3)ccc12` [Compound I-217, 4-ethoxy-N-[3-(4H-1,2,4-triazol-3-yl)propyl]-2-[6-(trifluoromethyl)pyridin-3-yl]quinoline-7-carboxamide], the viability at 1.667 µM in test [1] amounted to 2%. Further, in test [2], the inhibition at 1 µM amounted to 94% and the IC50 lay in the range of 10 to 50 nM.
As to `CCOc1cc(-c2ccnc(C)c2)nc2cc(C(=O)NCCCc3nnc[nH]3)ccc12` [Compound I-202, 4-ethoxy-2-(2-methylpyridin-4-yl)-N-[3-(4H-1,2,4-triazol-3-yl)propyl]quinoline-7-carboxamide], the viability at 1.667 µM in test [1] is 1%. Besides, in test [2], the inhibition at 1 µM was 98% and the half-maximal inhibitory concentration (IC50) was in the range of 10 to 50 nM.
Consider `CCOc1cc(-c2ccc(F)cc2)nc2cc(C(=O)NCCc3cn[nH]c3)ccc12` [Compound I-48, 4-ethoxy-2-(4-fluorophenyl)-N-[2-(1H-pyrazol-4-yl)ethyl]quinoline-7-carboxamide], for which the viability at 1.667 µM in test [1] is 4%. In test [2], the inhibition at 1 µM was found to be 97% and the concentration for half-maximal inhibition (IC50) fell in the range of 10 to 50 nM.
`CCOc1nc(-c2ccc(Cl)s2)nc2cc(C(=O)NCc3ccc4nccn4c3)ccc12` [Compound I-28, 2-(5-chloro-2-thienyl)-4-ethoxy-N-(imidazo[1,2-a]pyridin-6-ylmethyl)quinazoline-7-carboxamide]: in test [1], the viability at 1.667 µM is 1%. Also, in test [2], the inhibition at 1 µM came out at 99% and the half-maximal inhibitory concentration (IC50) is < 10 nM.
The like results for `CCOc1cc(-c2cnccc2OC)nc2cc(C(=O)NCCCc3nnc[nH]3)ccc12` [Compound I-212, 4-ethoxy-2-(4-methoxypyridin-3-yl)-N-[3-(4H-1,2,4-triazol-3-yl)propyl]quinoline-7-carboxamide] were, in that order, 2%, 69% and > 100 nM.
In the case of `CCOc1cc(-c2ccc(F)cc2)nc2cc(C(=O)NCCCn3cccn3)ccc12` [Compound I-43, 4-ethoxy-2-(4-fluorophenyl)-N-[3-(1H-pyrazol-1-yl)propyl]quinoline-7-carboxamide], in test [1], the viability at 1.667 µM is 77%. Further, in test [2], the inhibition at 1 µM amounted to 99% and the concentration for half-maximal inhibition (IC50) was < 10 nM.
For the compound `CCOc1cc(-c2ccc(C)nc2OC)nc2cc(C(=O)NCCCc3ccn[nH]3)ccc12` [Compound I-104, 4-ethoxy-2-(2-methoxy-6-methylpyridin-3-yl)-N-[3-(1H-pyrazol-5-yl)propyl]quinoline-7-carboxamide], in test [1], the viability at 1.667 µM turned out to be 2%. In test [2], the inhibition at 1 µM turned out to be 95% and the half-inhibitory concentration (IC50) was 10 to 50 nM.
As for `CCOc1cc(-c2ccc(Cl)s2)nc2cc(C(=O)NCCCc3nnc[nH]3)ccc12` [Compound I-125, 2-(5-chloro-2-thienyl)-4-ethoxy-N-[3-(4H-1,2,4-triazol-3-yl)propyl]quinoline-7-carboxamide], the viability at 1.667 µM in test [1] turned out to be 2%. In test [2], the inhibition at 1 µM came to 100% and the concentration for half-maximal inhibition (IC50) is < 10 nM.
The like results for `CCOc1cc(-c2ccc(C)nc2OC)nc2cc(C(=O)NCCc3c[nH]nc3C)ccc12` [Compound I-92, 4-ethoxy-2-(2-methoxy-6-methylpyridin-3-yl)-N-[2-(3-methyl-1H-pyrazol-4-yl)ethyl]quinoline-7-carboxamide] were, in that order, 2%, 95% and 10 to 50 nM.
In the case of `O=C(NCCCc1ncc[nH]1)c1ccc2c(OCC3CC3)nc(-c3ccc(F)cc3)nc2c1` [Compound I-40, 4-(cyclopropylmethoxy)-2-(4-fluorophenyl)-N-[3-(1H-imidazol-2-yl)propyl]quinazoline-7-carboxamide], the viability at 1.667 µM in test [1] came to 3%. For the same compound, in test [2], the inhibition at 1 µM is > 99% and the concentration for half-maximal inhibition (IC50) is < 10 nM.
The like results for `CCOc1cc(-c2cccc(OC(F)(F)F)c2)nc2cc(C(=O)NCCCc3nnc[nH]3)ccc12` [Compound I-216, 4-ethoxy-N-[3-(4H-1,2,4-triazol-3-yl)propyl]-2-[3-(trifluoromethoxy)phenyl]quinoline-7-carboxamide] were, in that order, 1%, 92% and 50 to 100 nM.
The like results for `CCOc1cc(-c2ccc(OC)nc2)nc2cc(C(=O)NCCCc3nnc[nH]3)ccc12` [Compound I-101, 4-ethoxy-2-(6-methoxypyridin-3-yl)-N-[3-(4H-1,2,4-triazol-3-yl)propyl]quinoline-7-carboxamide] were, in that order, 2%, 96% and 10 to 50 nM.
Taken in the same sequence, the figures for `CC(C)(C)OCc1nc(-c2ccc(Cl)cc2)nc2cc(C(=O)NCCCc3ncc[nH]3)ccc12` [Compound I-30, 4-(tert-butoxymethyl)-2-(4-chlorophenyl)-N-[3-(1H-imidazol-2-yl)propyl]quinazoline-7-carboxamide] were 1%, 91% and 50 to 100 nM.
As to `CCOc1cc(-c2cc(F)ccc2OC)nc2cc(C(=O)NCc3nc4cnccc4n3C)ccc12` [Compound I-179, 4-ethoxy-2-(5-fluoro-2-methoxyphenyl)-N-[(1-methyl-1H-imidazo[4,5-c]pyridin-2-yl)methyl]quinoline-7-carboxamide], the viability at 1.667 µM in test [1] was 2%. Further, in test [2], the inhibition at 1 µM was 95% and the half-inhibitory concentration (IC50) was in the range of 50 to 100 nM.
The like results for `CCOc1cc(-c2ccc(F)cc2)nc2cc(C(=O)NCCCc3ccnnc3)ccc12` [Compound I-45, 4-ethoxy-2-(4-fluorophenyl)-N-[3-(pyridazin-4-yl)propyl]quinoline-7-carboxamide] were, in that order, 8%, 100% and < 10 nM.
Taken in the same sequence, the figures for `CCOc1cc(-c2ccc(=O)n(C)c2)nc2cc(C(=O)NCCCc3cnn[nH]3)ccc12` [Compound I-96, 4-ethoxy-2-(1-methyl-6-oxo-1,6-dihydropyridin-3-yl)-N-[3-(1H-1,2,3-triazol-5-yl)propyl]quinoline-7-carboxamide] were 1%, > 99% and < 10 nM.
Taken in the same sequence, the figures for `CCOc1nc(-c2ccc(Cl)s2)nc2cc(C(=O)NCCCc3ncc[nH]3)ccc12` [Compound I-35, 2-(5-chloro-2-thienyl)-4-ethoxy-N-[3-(1H-imidazol-2-yl)propyl]quinazoline-7-carboxamide] were 1%, > 99% and < 10 nM.
With `CCOc1cc(-c2ccnc(C)c2)nc2cc(C(=O)NCCc3c[nH]nc3C)ccc12` [Compound I-146, 4-ethoxy-N-[2-(3-methyl-1H-pyrazol-4-yl)ethyl]-2-(2-methylpyridin-4-yl)quinoline-7-carboxamide], the viability at 1.667 µM in test [1] is 2%. Moreover, in test [2], the inhibition at 1 µM came to 87% and the IC50 was in the range of 50 to 100 nM.

Source of the values: patent US10323018B2 (Millennium Pharmaceuticals, Inc., priority 2015, dated 2019).
